# In PubChem BioAssay AID179 (DTP/NCI, 2004):
# Where “and” joins values, the source holds several entries; their conditions need not be identical. Equal values may be shown once. Calls of active or inactive are those of the source.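 Rule for the calls: active = compounds giving half or more protection of infected cells from virus-caused growth loss, again on retest; inactive = the rest.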
# System: CEM cells HIV-1 protection, formazan growth assay
# Assay: NCI AIDS Antiviral Assay
# Conditions: for IC50: measured here: growth of uninfected CEM cells
# Outline: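 Protection of CEM cells against HIV-1 was scored from cell growth (soluble formazan) across five concentrations, with parallel uninfected cells. Lack of protection may reflect toxicity.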
SMILES,EC50,IC50,outcome
COc1ccc(C23OCCN2C(=O)c2ccccc23)cc1 (centres undefined),> 200 µM,19.1 µM,
CC(=O)c1cccc(C(C)=O)c1N=Cc1ccc(Cl)cc1,> 200 µM,13.2 µM,
O=c1c2[nH]c3cccc(Cl)c3c2cnn1-c1ccc(F)cc1,> 6.03 µM,> 6.03 µM,
Cc1cn(C2CC(NC(=O)N(C)O)C(CO[Si](C)(C)C(C)(C)C)O2)c(=O)[nH]c1=O (centres undefined),> 200 µM,107 µM,
NS(=O)(=O)c1ccc(NC(=O)c2cccn3c(=O)c4ccccc4nc23)cc1,,,inactive
CSc1c(C#N)c(=O)n(N)c2c1c(C)nn2-c1ccccc1,> 200 µM,26.9 µM,
c1ccc2nn(C3CCCO3)nc2c1 (centres undefined),> 200 µM,> 200 µM,
O=C1/C(=C/c2cccc([N+](=O)[O-])c2)CCc2ccccc21,> 9.77 µM,> 9.77 µM,
CSc1nc2c(=O)oc(-c3ccc([N+](=O)[O-])cc3)nc2s1,> 151 µM,5.37 µM,
c1ccc(C2C3=C(CCCC3)Nc3nc4cc5ccccc5cc4n32)cc1 (centres undefined),> 200 µM,> 200 µM,
CC1=C(CC/C(C)=C/CCC2(C)CCC([C@H](C)C(=O)O)OO2)C(C)(C)CCC1 (some centres undefined) (tested in a mixture with another compound),,,inactive
NC(=O)c1c([N+](=O)[O-])ncn1C1OC(CO)C(F)C1O (centres undefined),> 200 µM,> 200 µM,
[O-][n+]1onc(-c2ccccc2)c1-c1ccccc1,> 151 µM,> 151 µM,
O=C(Nc1ccc(Cl)c(Cl)c1)C1C(=O)N(c2ccc(Cl)c(Cl)c2)C(=O)/C1=N\O (centres undefined),,,inactive
CC1(C)CC(=O)C2=C(C1)Nc1ccccc1NC2c1ccccc1 (centres undefined),> 200 µM,> 200 µM,
CCOC(=O)Cn1c(=O)n(C)c(=O)c2c1ncn2Cc1ccccc1,> 724 µM,427 µM,
O=C(NNC(=O)c1cc2ccccc2[nH]1)c1cc2ccccc2[nH]1,> 200 µM,> 200 µM,
O=C1CC(c2ccc(O)cc2)Oc2cc(O)cc(O)c21 (centres undefined),> 200 µM,> 100 µM and 87.1 µM,
CCOC(=O)C1(C(=O)OCC)CCC(C(OC)OC)C(CC(=O)OC)C1 (centres undefined),> 200 µM,> 200 µM,
CC1=NNC(=O)C1C1C(=O)NN=C(c2c[nH]c3ccccc23)C1Br (centres undefined),> 200 µM,95.5 µM,
NC(N)=NS(=O)(=O)c1ccc(NNc2c3ccccc3nc3ccccc23)cc1,> 200 µM,1.07 µM,

SMILES,EC50,IC50,outcome
CC(=O)OC1COC(n2c(-c3ccc(Cl)cc3)cc(-c3ccccc3)c(C#N)c2=S)C(OC(C)=O)C1OC(C)=O (centres undefined),> 200 µM,> 200 µM,
CC1(COc2ccccc2OCC2(C)CO2)CO1 (centres undefined),> 1000 µM,16.6 µM,
O=c1c2ccccc2nc(-c2ccccc2)n1/N=C/c1ccccc1[N+](=O)[O-],> 50.1 µM,> 50.1 µM,
CC1(CCCO)CCCCCC(C)(CCCO)C1=O (centres undefined),> 200 µM,97.7 µM,
O=C(OCCN=C1c2ccccc2CCc2ccccc21)c1ccccc1,> 200 µM,> 200 µM,
CC(C)(C1=NC(C(C)(C)C)CO1)C1=N[C@@H](C(C)(C)C)CO1 (some centres undefined),> 251 µM,> 251 µM,
O=[N+]([O-])/C(C(Cl)=C(Cl)Cl)=C1\Nc2ccccc2O1,> 200 µM,97.7 µM,
CC1(Cl)CC2C(CC1Sc1nnnn1-c1ccccc1)C2(C)C (centres undefined),> 20.9 µM,> 20.9 µM,
COc1cccc(/C=N/[N-]C(=O)c2ccncc2)c1[O-].[Mn+2].[OH3+],> 39.8 µM,6.61 µM,
CC(CN(C)C)OC(=O)c1cc2ccccc2[nH]1 (centres undefined),> 200 µM,> 200 µM,
CC(CO)CCNc1ncnc2c1ncn2CCC(=O)OC(C)(C)C (centres undefined),> 200 µM,> 200 µM,
O=C1/C=C(/c2ccc(O)cc2)[C@@H](O)Cc2ccc(O)cc2O1,> 200 µM,> 200 µM,
NC(CSS(=O)(=O)O)=NCCCc1ccccc1,> 200 µM,110 µM,
Cc1nc2c3c(ncn2n1)Oc1c(c(-c2ccccc2)nn1-c1ccccc1)C3c1ccc(Cl)cc1 (centres undefined),> 200 µM,> 200 µM,
CC(=O)c1cccn1/C=C(\OC(=O)OC(C)(C)C)c1ccc[nH]1,155 µM,162 µM,
COc1cc(Nc2nc3cc(C(F)(F)F)ccc3nc2C)cc(OC)c1OC,> 60.3 µM,31.6 µM,
CC(=O)CC(=O)ON(C)C(C)=O,> 1450 µM,> 1450 µM,
CC(=O)OC1CC2C(CCC3(C)C(OC(C)=O)CCC23)c2c(OS(=O)(=O)c3ccccc3)ccc(C)c21 (centres undefined),> 100 µM,> 100 µM,
O=C1[C@H]2ON(c3ccccc3)C(c3ccc(Cl)cc3)[C@H]2C(=O)N1c1ccc(Cc2ccc(N3C(=O)[C@@H]4ON(c5ccccc5)C(c5ccc(Cl)cc5)[C@@H]4C3=O)cc2)cc1 (some centres undefined),> 6.31 µM,> 6.31 µM,
O=C(O)c1nc2ccccc2n2cccc12,> 200 µM,> 200 µM,
O=C(CC(O)CCc1ccc(O)c(O)c1)O[C@H]1Cc2c(O)cc(O)cc2O[C@H]1c1ccc(O)c(O)c1 (some centres undefined),> 200 µM,14.1 µM,

SMILES,EC50,IC50,outcome
COC(=O)/C(=N\NC(N)=O)C(C(=O)C(=O)Nc1ccccc1C(=O)OC)c1nc2ccc(C(=O)c3ccccc3)cc2[nH]c1=O (centres undefined),,,inactive
O=S(=O)(O)OC1CCCCC1Nc1ccccc1 (centres undefined),,,inactive
Cc1cccnc1/N=C/c1c(O)n(C)c(=O)[nH]c1=O,> 200 µM,> 200 µM,
CC(=O)OCCn1c(Cc2ccc([N+](=O)[O-])cc2)nn(C(C)=O)c1=O,> 200 µM,> 200 µM,
Oc1ccc[n+](Cc2ccccc2)c1,> 200 µM,> 200 µM,
[Ni].c1c[nH]cn1.c1c[nH]cn1.c1c[nH]cn1.c1c[nH]cn1.c1c[nH]cn1.c1c[nH]cn1,> 66.1 µM,> 66.1 µM,
Cc1[nH]c2ccccc2c1C1Cc2ccccc2N1C(=O)/C(Cl)=C/c1ccccc1 (centres undefined),> 6.61 µM,> 6.61 µM,
CC(C)C(=O)OCN(C)c1nc(N(C)COC(=O)C(C)C)nc(N(C)COC(=O)C(C)C)n1,> 200 µM,18.6 µM,
Cn1c(=O)n2n(c1=O)C1CCC2CC1,> 1290 µM,437 µM,
CC(SS(=O)(=O)O)C(N)=NCc1ccccc1 (centres undefined),> 200 µM,67.6 µM,
O=c1ccn([C@H]2CSC[C@@H](CO)C2)c(=O)[nH]1,> 1020 µM,> 1020 µM,
O=C1CCCC1CN1CCCC1 (centres undefined),,,inactive
N#C/C(=C\NC(=S)C(N)=S)c1nc2ccccc2s1,> 200 µM,5.75 µM,
O=C1C=C2CCN(C(=O)c3ccccc3)CC2O1 (centres undefined),> 200 µM,> 200 µM,
Cc1nnc2sc(NN)nn12,> 200 µM,107 µM,
CC1=C(C(=O)Nc2cccc(Cl)c2)C(c2ccc([N+](=O)[O-])cc2)C(C(=O)Nc2cccc(Cl)c2)=C(C)N1,> 9.77 µM,7.94 µM,
COc1ccccc1NCC(=O)Nn1c(C)nc2ccc(S(=O)(=O)Nc3ccccc3OC)cc2c1=O,> 200 µM,148 µM,
CCOC(=O)C1C[C@H]2CO[C@H](c3ccccc3)N2C1=O (some centres undefined),> 200 µM,> 200 µM,
CC1=C(C(=O)NCCc2ccccc2)CC(C(=O)NCCc2ccccc2)=C(C)N1,> 200 µM,123 µM,
c1ccc(-c2sc(-c3ccccc3)c3c2C(c2ccccc2)c2c(-c4ccccc4)sc(-c4ccccc4)c2C3c2ccccc2)cc1 (centres undefined),,,inactive
O=c1[nH]cnc2c1ncn2C1C=CC(CO)CC1 (centres undefined),> 200 µM,> 200 µM,
